From patent publication US10954214B2 (Janssen Pharmaceutica NV, priority 2016, dated 2021) come the findings set out here.

In one test the test system is OCI-Ly3 cells. The test can be described thus: 4-day proliferation assay, OCI-Ly3. The format is cell-based, human. The conditions noted are these: Homo sapiens, 96 h, 4 days incubation, CellTiterGLO, read-out: Anti-proliferation: OCI-LY-3 IC50. In outline:
(§1)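 Each line was plated at 10,000 cells per well for linear growth, with no beta-mercaptoethanol during the assay. OCI-Ly3 cells were below passage 10.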

Another test relates to TMD8 cells. Briefly: 4-day proliferation assay, TMD8. Type of test: cell-based. The conditions noted are these: Homo sapiens, 96 h, 4 days incubation, CellTiterGLO, read-out: Anti-proliferation: TMD-8 IC50. In outline:
as §1

Test [1] concerns IL6 secretion by TMD8 ABC-DLBCL cells. Briefly: Human IL6 Mesoscale assay (TMD-8). The conditions noted are these: Homo sapiens, TMD8; TMD-8 cells, 24 h. The format is cell-based. In outline: (§2)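 Read-out: MSD electrochemiluminescence of IL6/IL10 in supernatants. Cells (100,000/well, no beta-mercaptoethanol) were exposed to compounds at 15 μM down to 58.6 nM, 1:2 dilutions, for 24 h at 37° C, 5% CO2. Normalised between DMSO (high) and RN486 (low) controls.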

Test [2] relates to IL10 secretion by TMD8 ABC-DLBCL cells. Briefly: Human IL10 Mesoscale assay (TMD-8). The format is cell-based. As to conditions: Homo sapiens, TMD8; TMD-8 cells, 24 h. In outline: as §2
Test [3] deals with full-length MALT1 protein (Strep-MALT1(1-824)-His) (Homo sapiens (Human), UniProt Q9UDY8). Briefly: MALT1 Biochemical Protease Assay (Ac-LRSR-AMC substrate). The conditions noted are these: 10 nM FL MALT1, 200 μM Ac-LRSR-AMC, 4 h at RT; read-out: MALT1_Biochemical activity (Ac-LRSR-amc) IC50. An outline of the steps:
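Fluorescence from AMC release off the quenched LRSR substrate was read after a 4 h reaction at RT. Values were normalised to no-enzyme and uninhibited controls and fitted for IC50 and Hill coefficient.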

Sequence of full-length MALT1 protein (Strep-MALT1(1-824)-His) (Q9UDY8 whole entry): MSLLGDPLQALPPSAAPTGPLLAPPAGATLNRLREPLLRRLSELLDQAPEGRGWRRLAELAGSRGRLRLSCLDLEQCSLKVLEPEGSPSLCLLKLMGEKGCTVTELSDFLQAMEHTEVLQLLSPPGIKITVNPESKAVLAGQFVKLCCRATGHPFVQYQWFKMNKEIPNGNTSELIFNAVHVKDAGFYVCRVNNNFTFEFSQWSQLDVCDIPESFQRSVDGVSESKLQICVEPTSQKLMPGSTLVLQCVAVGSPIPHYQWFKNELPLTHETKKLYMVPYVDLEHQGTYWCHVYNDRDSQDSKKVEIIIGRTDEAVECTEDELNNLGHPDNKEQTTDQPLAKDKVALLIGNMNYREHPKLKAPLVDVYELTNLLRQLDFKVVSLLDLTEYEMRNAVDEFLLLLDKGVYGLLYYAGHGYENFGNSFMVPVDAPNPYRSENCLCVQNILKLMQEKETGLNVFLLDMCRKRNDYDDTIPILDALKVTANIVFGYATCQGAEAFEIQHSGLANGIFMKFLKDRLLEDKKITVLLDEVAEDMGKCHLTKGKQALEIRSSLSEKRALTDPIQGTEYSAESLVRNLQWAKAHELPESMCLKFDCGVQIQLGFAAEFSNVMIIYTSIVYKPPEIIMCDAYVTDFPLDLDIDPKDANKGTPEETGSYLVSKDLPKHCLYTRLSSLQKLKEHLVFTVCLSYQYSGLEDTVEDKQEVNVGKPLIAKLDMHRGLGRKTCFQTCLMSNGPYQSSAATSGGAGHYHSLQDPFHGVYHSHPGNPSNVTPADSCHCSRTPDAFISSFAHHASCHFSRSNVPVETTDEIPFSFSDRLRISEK

In the case of `N#Cc1cc(NC(=O)c2cnn(-c3cncc4ncccc34)c2C(F)(F)F)cnc1-n1nccn1` [Cpd 145, N-(5-cyano-6-(2H-1,2,3-triazol-2-yl)pyridin-3-yl)-1-(1,7-naphthyridin-5-yl)-5-(trifluoromethyl)-1H-pyrazole-4-carboxamide], the IC50 in the test on OCI-Ly3 cells came to 626 nM; in the test with TMD8 cells, 4570 nM; in test [1], 126 nM; in test [2], 47 nM; in test [3], 28 nM.

For `O=C(Nc1cnc(-n2nccn2)c(C(F)(F)F)c1)c1cnn(-c2cccc3ncccc23)c1C(F)(F)F` [Cpd 146, N-(6-(2H-1,2,3-triazol-2-yl)-5-(trifluoromethyl)pyridin-3-yl)-1-(quinolin-5-yl)-5-(trifluoromethyl)-1H-pyrazole-4-carboxamide], the IC50 with OCI-Ly3 cells came out at 337 nM; with TMD8 cells, 1020 nM; in test [1], 331 nM; in test [2], 132 nM; in test [3] it was 32 nM.

With `O=C(Nc1cnc(-n2nccn2)c(Cl)c1)c1cnn(-c2nccn3cccc23)c1C(F)(F)F` [Cpd 147, N-(5-chloro-6-(2H-1,2,3-triazol-2-yl)pyridin-3-yl)-1-(pyrrolo[1,2-a]pyrazin-1-yl)-5-(trifluoromethyl)-1H-pyrazole-4-carboxamide], the IC50 stood at 966 nM in the test with OCI-Ly3 cells; 11500 nM with TMD8 cells; 200 nM in test [1]; 85 nM in test [2]; 30 nM in test [3].

On to `N#Cc1cc(NC(=O)c2cnn(-c3nccn4cccc34)c2C(F)(F)F)cnc1-n1nccn1` [Cpd 148, N-(5-cyano-6-(2H-1,2,3-triazol-2-yl)pyridin-3-yl)-1-(pyrrolo[1,2-a]pyrazin-1-yl)-5-(trifluoromethyl)-1H-pyrazole-4-carboxamide], for which the IC50 in the test on OCI-Ly3 cells is 692 nM; in the test with TMD8 cells, 3800 nM; in test [1] it was 105 nM; in test [2] it was 112 nM; in test [3] it was 32 nM.

Turning to `Cn1nnc(-c2ncc(NC(=O)c3cnn(-c4cccc5ncccc45)c3C(F)(F)F)cc2C#N)n1` [Cpd 149, N-(5-cyano-6-(2-methyl-2H-tetrazol-5-yl)pyridin-3-yl)-1-(quinolin-5-yl)-5-(trifluoromethyl)-1H-pyrazole-4-carboxamide], the IC50 worked out at 759 nM with OCI-Ly3 cells; 4360 nM with TMD8 cells; 912 nM in test [1]; 2630 nM in test [2]; 29 nM in test [3].

Take `N#Cc1cc(NC(=O)c2cnn(-c3ccnc4ccoc34)c2C(F)(F)F)cnc1-n1nccn1` [Cpd 150, N-(5-cyano-6-(2H-1,2,3-triazol-2-yl)pyridin-3-yl)-1-(furo[3,2-b]pyridin-7-yl)-5-(trifluoromethyl)-1H-pyrazole-4-carboxamide]: the IC50 with OCI-Ly3 cells was 282 nM; in the test on TMD8 cells, over 7940 nM; in test [1], 457 nM; in test [2] it was 178 nM; in test [3], 8 nM.

As to `N#Cc1cc(NC(=O)c2cnn(-c3cnc(N)c4ccccc34)c2C(F)(F)F)cnc1-n1nccn1` [Cpd 156, 1-(1-aminoisoquinolin-4-yl)-N-(5-cyano-6-(2H-1,2,3-triazol-2-yl)pyridin-3-yl)-5-(trifluoromethyl)-1H-pyrazole-4-carboxamide], the IC50 in the test with OCI-Ly3 cells is 776 nM; in the test with TMD8 cells, 5250 nM; in test [1], 2510 nM; in test [2], 2340 nM; in test [3], 22 nM.

Regarding `COCc1cnn(-c2ncc(NC(=O)c3cnn(-c4cccc5ncccc45)c3C(F)(F)F)cc2Cl)n1` [Cpd 173, N-(5-chloro-6-(4-(methoxymethyl)-2H-1,2,3-triazol-2-yl)pyridin-3-yl)-1-(quinolin-5-yl)-5-(trifluoromethyl)-1H-pyrazole-4-carboxamide], the IC50 amounted to 1730 nM with OCI-Ly3 cells; 2690 nM in the test on TMD8 cells; 550 nM in test [1]; 240 nM in test [2]; 59 nM in test [3].

For the compound `O=C(Nc1ccc(-n2cc(CO)cn2)c(Cl)c1)c1cnn(-c2cccc3ncccc23)c1C(F)(F)F` [Cpd 175, N-(3-chloro-4-(4-(hydroxymethyl)-1H-pyrazol-1-yl)phenyl)-1-(quinolin-5-yl)-5-(trifluoromethyl)-1H-pyrazole-4-carboxamide], the IC50 was 1080 nM in the test with OCI-Ly3 cells; 1230 nM with TMD8 cells; over 3020 nM in test [1]; 204 nM in test [2]; 47 nM in test [3].

On to `N#Cc1cc(NC(=O)c2cnn(-c3cccc4ncccc34)c2C(F)(F)F)cnc1-n1ncc(CO)n1` [Cpd 177, N-(5-cyano-6-(4-(hydroxymethyl)-2H-1,2,3-triazol-2-yl)pyridin-3-yl)-1-(quinolin-5-yl)-5-(trifluoromethyl)-1H-pyrazole-4-carboxamide], for which the IC50 in the test with OCI-Ly3 cells turned out to be 1710 nM; in the test on TMD8 cells it was 6610 nM; in test [1], 933 nM; in test [2] it was 363 nM; in test [3], 44 nM.

For the compound `O=C(Nc1cnc(-n2cc(CO)cn2)c(Cl)c1)c1cnn(-c2cccc3c(=O)[nH]ccc23)c1C(F)(F)F` [Cpd 182, N-(5-chloro-6-(4-(hydroxymethyl)-1H-pyrazol-1-yl)pyridin-3-yl)-1-(1-oxo-1,2-dihydroisoquinolin-5-yl)-5-(trifluoromethyl)-1H-pyrazole-4-carboxamide], the IC50 in the test with OCI-Ly3 cells worked out at 3140 nM; in the test on TMD8 cells, 5250 nM; in test [1], 7590 nM; in test [2], 2510 nM; in test [3], 35 nM.

Turning to `Cn1nc(-c2ncc(NC(=O)c3cnn(-c4cccc5c(=O)[nH]ccc45)c3C(F)(F)F)cc2Cl)cc1N` [Cpd 183, N-(6-(5-amino-1-methyl-1H-pyrazol-3-yl)-5-chloropyridin-3-yl)-1-(1-oxo-1,2-dihydroisoquinolin-5-yl)-5-(trifluoromethyl)-1H-pyrazole-4-carboxamide], the IC50 in the test on OCI-Ly3 cells was 3570 nM; in the test on TMD8 cells, over 20000 nM; in test [1], 6610 nM; in test [2], 2140 nM; in test [3], 35 nM.

As to `O=C(Nc1cnc(-n2nccn2)c(Cl)c1)c1cnn(-c2c[nH]c(=O)c3c(F)cccc23)c1C(F)(F)F` [Cpd 184, N-(5-chloro-6-(2H-1,2,3-triazol-2-yl)pyridin-3-yl)-1-(8-fluoro-1-oxo-1,2-dihydroisoquinolin-4-yl)-5-(trifluoromethyl)-1H-pyrazole-4-carboxamide], the IC50 in the test with OCI-Ly3 cells was found to be 585 nM; with TMD8 cells, 6030 nM; in test [1], 4270 nM; in test [2], 1000 nM; in test [3], 32 nM.

As for `O=C(Nc1cnc(-n2nccn2)c(Cl)c1)c1cnn(-c2ccc(F)c3nccn23)c1C(F)(F)F` [Cpd 202, N-(5-chloro-6-(2H-1,2,3-triazol-2-yl)pyridin-3-yl)-1-(8-fluoroimidazo[1,2-a]pyridin-5-yl)-5-(trifluoromethyl)-1H-pyrazole-4-carboxamide], the IC50 in the test with OCI-Ly3 cells amounted to 1360 nM; in the test with TMD8 cells it was 2340 nM; in test [1], 5010 nM; in test [2], 2950 nM; in test [3] it was 51 nM.

On to `N#Cc1cc(NC(=O)c2cnn(-c3ccc(F)c4nccn34)c2C(F)(F)F)cnc1-n1nccn1` [Cpd 204, N-(5-cyano-6-(2H-1,2,3-triazol-2-yl)pyridin-3-yl)-1-(8-fluoroimidazo[1,2-a]pyridin-5-yl)-5-(trifluoromethyl)-1H-pyrazole-4-carboxamide], for which the IC50 in the test on OCI-Ly3 cells was 1720 nM; with TMD8 cells, 5890 nM; in test [1], 525 nM; in test [2], 1150 nM; in test [3], 35 nM.

Regarding `O=C(Nc1cnc(-n2nccn2)c(Cl)c1)c1cnn(-c2cccc3nc(Cl)ccc23)c1C(F)(F)F` [Cpd 221, N-(5-chloro-6-(2H-1,2,3-triazol-2-yl)pyridin-3-yl)-1-(2-chloroquinolin-5-yl)-5-(trifluoromethyl)-1H-pyrazole-4-carboxamide], the IC50 in the test with OCI-Ly3 cells was found to be 912 nM; with TMD8 cells, 2570 nM; in test [1], 331 nM; in test [2], 331 nM; in test [3], 2040 nM.

On to `N#Cc1cc(NC(=O)c2cnn(-c3ccc(F)c4ccccc34)c2C(F)(F)F)cnc1-n1nccn1` [Cpd 312, N-(5-cyano-6-(2H-1,2,3-triazol-2-yl)pyridin-3-yl)-1-(4-fluoronaphthal-1-yl)-5-(trifluoromethyl)-1H-pyrazole-4-carboxamide], for which the IC50 came out at 516 nM in the test with OCI-Ly3 cells; 501 nM with TMD8 cells; 8320 nM in test [1]; 2460 nM in test [2]; 49 nM in test [3].

Take `COC(=O)c1ccc(NC(=O)c2cnn(-c3cccc4ncccc34)c2C(F)(F)F)cc1C#N` [Cpd 313, methyl 2-cyano-4-(1-(quinolin-5-yl)-5-(trifluoromethyl)-1H-pyrazole-4-carboxamido)benzoate]: the IC50 in the test with OCI-Ly3 cells was determined as 939 nM; with TMD8 cells, 7940 nM; in test [1], 7240 nM; in test [2] it was 4170 nM; in test [3], 43 nM.
